Reference: ChEMBL document CHEMBL6109070, “Fatty acid conjugated BimBH3 analogues with d‑amino acid substitution as PTPN1 inhibitors with enhanced activity, biostability and orally available potency for the treatment of diabetes” (Bioorg Med Chem, 2025)

Tests used:
[1] = molecular target: T1, Tyrosine-protein phosphatase non-receptor type 1 (Homo sapiens, UniProt P18031); assay: Inhibition of recombinant human PTPN1 using p-nitrophenyl phosphate as substrate by spectrophotometric analysis
T1 sequence (P18031 whole entry): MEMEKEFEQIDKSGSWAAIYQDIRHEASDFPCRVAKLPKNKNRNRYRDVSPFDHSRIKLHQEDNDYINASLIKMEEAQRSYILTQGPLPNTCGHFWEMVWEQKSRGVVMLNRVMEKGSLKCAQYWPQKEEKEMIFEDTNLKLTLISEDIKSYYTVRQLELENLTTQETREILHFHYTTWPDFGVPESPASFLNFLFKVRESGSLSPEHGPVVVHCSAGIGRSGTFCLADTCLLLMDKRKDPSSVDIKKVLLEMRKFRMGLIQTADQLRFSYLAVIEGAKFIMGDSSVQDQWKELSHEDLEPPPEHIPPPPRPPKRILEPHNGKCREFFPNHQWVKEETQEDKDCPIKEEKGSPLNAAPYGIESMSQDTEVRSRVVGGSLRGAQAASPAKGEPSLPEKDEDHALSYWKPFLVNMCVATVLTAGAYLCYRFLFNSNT

[2] = molecular target: DPP-4 (dipeptidyl peptidase 4) (Homo sapiens, UniProt P27487); assay: Stability of compound assessed as DPP-4 (unknown origin)-mediated drug degradation by measuring half life measured for 10 mins by RP-HPLC analysis; assay type: ADME
chymotrypsin = assay: Proteolytic stability of compound assessed as chymotrypsin (unknown origin)-mediated drug degradation at 0.6 mM by measuring half life measured after 24 hrs by RP-HPLC analysis; assay type: ADME; settings: human
[3] = molecular target: T2, Tyrosine-protein phosphatase non-receptor type 1 (Homo sapiens) (UniProt P18031); assay: Binding affinity to PTPN1 (unknown origin) assessed as dissociation rate constant (Koff) by Bio-Layer Interferometric analysis
T2 sequence (whole entry): T1 sequence (P18031 whole entry)

[4] = Toxicity in male Kunming mouse assessed as reduction in body weight at 0.2 microM/Kg, sc administered daily for 7 days and measured on day 1; assay type: organism-based; settings: in vivo, 24 h, time 1 day
proteinase K = assay: Proteolytic stability of compound assessed as proteinase K (unknown origin)-mediated drug degradation at 0.4 mM by measuring half life measured after 24 hrs by RP-HPLC analysis; assay type: ADME; settings: human
[5] = molecular target: T2, Tyrosine-protein phosphatase non-receptor type 1 (Homo sapiens); assay: Binding affinity to PTPN1 (unknown origin) assessed as observed […] rate constant (Kobs) by Bio-Layer Interferometric analysis
[6] = molecular target: T2, Tyrosine-protein phosphatase non-receptor type 1 (Homo sapiens); assay: Binding affinity to PTPN1 (unknown origin) assessed as association rate constant (Kon) by Bio-Layer Interferometric analysis
Mus musculus [7] = assay: Anti-diabetic activity in male Kunming mouse assessed as reduction in area under the curve of blood glucose at 0.1 microM/Kg, sc measured for 0 to 120 mins by GTT; assay type: functional; set-up: scale not given: the % may be the effect or the level left; settings: time 0-120 min, at 0.1 µmol/kg
Mus musculus [8] = assay: Anti-diabetic activity in male Kunming mouse assessed as reduction in area under the curve of blood glucose at 0.2 microM/Kg, sc measured for 0 to 120 mins by GTT; assay type: functional; set-up: scale not given: the % may be the effect or the level left; settings: time 0-120 min, at 0.2 µmol/kg
Mus musculus [9] = assay: Anti-diabetic activity in male Kunming mouse assessed as reduction in area under the curve of blood glucose at 20 mg/kg, po measured for 0 to 180 mins by GTT; assay type: functional; set-up: scale not given: the % may be the effect or the level left; settings: time 0-180 min
[10] = molecular target: T1, Tyrosine-protein phosphatase non-receptor type 1; assay: Binding affinity to PTPN1 (unknown origin) assessed as equilibrium dissociation constant (Kd) by Bio-Layer Interferometric analysis
Mus musculus [11] = assay: Anti-diabetic activity in male Kunming mouse assessed as reduction in area under the curve of blood glucose at 40 mg/kg, po measured for 0 to 180 mins by GTT; assay type: functional; set-up: scale not given: the % may be the effect or the level left; settings: time 0-180 min
[12] = Toxicity in male Kunming mouse assessed as change in body weight at 0.2 microM/Kg, sc administered daily for 7 days and measured from day 2 to 7; assay type: organism-based; settings: in vivo, 144 h, time 6 day
Mus musculus [13] = assay: Anti-diabetic activity in male Kunming mouse assessed as reduction in area under the curve of blood glucose at 10 mg/kg, po measured for 0 to 180 mins by GTT; assay type: functional; set-up: scale not given: the % may be the effect or the level left; settings: time 0-180 min
[14] = Stability in rat plasma assessed as half life; assay type: ADME, cell-free
pepsin = assay: Proteolytic stability of compound assessed as pepsin (unknown origin)-mediated drug degradation at 40 mM by measuring half life measured after 24 hrs by RP-HPLC analysis; assay type: ADME; settings: human
Mus musculus [15] = assay: Anti-diabetic activity in male Kunming mouse assessed as reduction in area under the curve of blood glucose at 0.05 microM/Kg, sc measured for 0 to 120 mins by GTT; assay type: functional; set-up: scale not given: the % may be the effect or the level left; settings: time 0-120 min, at 0.05 µmol/kg

Chain of DPP-4 (dipeptidyl peptidase 4) (P27487 whole entry): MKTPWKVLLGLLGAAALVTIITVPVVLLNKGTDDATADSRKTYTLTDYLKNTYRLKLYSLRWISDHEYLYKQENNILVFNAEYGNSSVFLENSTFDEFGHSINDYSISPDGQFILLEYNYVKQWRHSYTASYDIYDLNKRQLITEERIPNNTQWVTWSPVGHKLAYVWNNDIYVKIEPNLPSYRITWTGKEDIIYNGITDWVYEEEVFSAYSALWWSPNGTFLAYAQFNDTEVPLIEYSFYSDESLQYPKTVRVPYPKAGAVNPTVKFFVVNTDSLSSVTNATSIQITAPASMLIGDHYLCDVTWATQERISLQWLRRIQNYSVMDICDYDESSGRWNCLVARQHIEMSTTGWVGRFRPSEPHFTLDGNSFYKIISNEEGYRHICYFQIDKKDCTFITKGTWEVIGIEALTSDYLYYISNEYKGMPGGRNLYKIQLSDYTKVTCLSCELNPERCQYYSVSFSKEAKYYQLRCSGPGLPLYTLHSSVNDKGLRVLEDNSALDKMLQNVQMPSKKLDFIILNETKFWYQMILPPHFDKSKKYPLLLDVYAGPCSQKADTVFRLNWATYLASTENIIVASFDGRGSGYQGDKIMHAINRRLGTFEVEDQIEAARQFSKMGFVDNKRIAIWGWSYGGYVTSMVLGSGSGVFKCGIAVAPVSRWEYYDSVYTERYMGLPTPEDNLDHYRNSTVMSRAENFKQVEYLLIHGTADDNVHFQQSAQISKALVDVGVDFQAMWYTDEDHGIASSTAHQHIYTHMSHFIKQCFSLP

Compound | IC50 [1] [nM] | half-life [2] [h] | half-life at 600 µM (chymotrypsin) [h] | K [3] | Activity [4] | half-life at 400 µM (proteinase K) [h] | Kobs [5] | K [6] | Activity (Mus musculus [7]) [%] | Activity (Mus musculus [8]) [%] | Activity (Mus musculus [9]) [%] | Kd [10] [nM] | Activity (Mus musculus [11]) [%] | Activity [12] | Activity (Mus musculus [13]) [%] | half-life [14] [h] | half-life at 40000 µM (pepsin) [h] | Activity (Mus musculus [15]) [%]
CCCCCCCCCCCCCCCC(=O)N[C@H](C(=O)N[C@H](CCC(N)=O)C(=O)N[C@@H](CCC(N)=O)C(=O)N[C@@H](CCC(=O)O)C(=O)N[C@@H](CC(C)C)C(=O)N[C@@H](CCCNC(=N)N)C(=O)N[C@@H](CCCNC(=N)N)C(=O)N[C@H](C(=O)NCC(=O)N[C@@H](CC(=O)O)C(=O)N[C@@H](CCC(=O)O)C(=O)N[C@@H](Cc1ccccc1)C(=O)O)[C@@H](C)CC)[C@@H](C)CC | 4210 |  |  |  |  |  |  |  |  |  |  |  |  |  |  |  |  | 
CCCCCCCCCCCCCCCC(=O)N[C@H](C(=O)N[C@H](CCCCN)C(=O)N[C@@H](CCC(N)=O)C(=O)N[C@@H](CCC(=O)O)C(=O)N[C@@H](CC(C)C)C(=O)N[C@@H](CCCNC(=N)N)C(=O)N[C@@H](CCCNC(=N)N)C(=O)N[C@H](C(=O)NCC(=O)N[C@@H](CC(=O)O)C(=O)N[C@@H](CCC(=O)O)C(=O)N[C@@H](Cc1ccccc1)C(=O)O)[C@@H](C)CC)[C@@H](C)CC | 2140 |  |  |  |  |  |  |  |  |  |  |  |  |  |  |  |  | 
CCCCCCCCCCCCCCCC(=O)N[C@H](C(=O)N[C@@H](C)C(=O)N[C@@H](CCC(N)=O)C(=O)N[C@@H](CCC(=O)O)C(=O)N[C@@H](CC(C)C)C(=O)N[C@@H](CCCNC(=N)N)C(=O)N[C@@H](CCCNC(=N)N)C(=O)N[C@@H](C(=O)NCC(=O)N[C@@H](CC(=O)O)C(=O)N[C@@H](CCC(=O)O)C(=O)N[C@@H](Cc1ccccc1)C(=O)O)[C@@H](C)CC)[C@@H](C)CC | 294 | 2.87 | 0.712 | 2.5 10^-5/s | ~ 1 g | 8.87 | 3.31 10^-2No_unit | 1.65 10^3/Ms | 15.6 | 26.2 | 8 | 15.1 | 15.4 | Non-toxic | 4.6 | 101 | 1.42 | 7.1
CCCCCCCCCCCCCCCC(=O)N[C@H](C(=O)N[C@H](CO)C(=O)N[C@@H](CCC(N)=O)C(=O)N[C@@H](CCC(=O)O)C(=O)N[C@@H](CC(C)C)C(=O)N[C@@H](CCCNC(=N)N)C(=O)N[C@@H](CCCNC(=N)N)C(=O)N[C@H](C(=O)NCC(=O)N[C@@H](CC(=O)O)C(=O)N[C@@H](CCC(=O)O)C(=O)N[C@@H](Cc1ccccc1)C(=O)O)[C@@H](C)CC)[C@@H](C)CC | 4410 |  |  |  |  |  |  |  |  |  |  |  |  |  |  |  |  | 
CCCCCCCCCCCCCCCC(=O)N[C@H](C(=O)N[C@@H](C)C(=O)N[C@@H](CCC(N)=O)C(=O)N[C@@H](CCC(=O)O)C(=O)N[C@@H](CC(C)C)C(=O)N[C@@H](CCCNC(=N)N)C(=O)N[C@H](CCCNC(=N)N)C(=O)N[C@H](C(=O)NCC(=O)N[C@@H](CC(=O)O)C(=O)N[C@@H](CCC(=O)O)C(=O)N[C@@H](Cc1ccccc1)C(=O)O)[C@@H](C)CC)[C@@H](C)CC | 1640 |  |  |  |  |  |  |  |  |  |  |  |  |  |  |  |  | 
CCCCCCCCCCCCCCCC(=O)N[C@H](C(=O)N[C@@H](C)C(=O)N[C@H](CCC(N)=O)C(=O)N[C@@H](CCC(=O)O)C(=O)N[C@@H](CC(C)C)C(=O)N[C@@H](CCCNC(=N)N)C(=O)N[C@@H](CCCNC(=N)N)C(=O)N[C@H](C(=O)NCC(=O)N[C@@H](CC(=O)O)C(=O)N[C@@H](CCC(=O)O)C(=O)N[C@@H](Cc1ccccc1)C(=O)O)[C@@H](C)CC)[C@@H](C)CC | 855 | 1.42 | 1.86 |  |  | 3.21 |  |  |  |  |  |  |  |  |  |  | 1.13 | 
CCCCCCCCCCCCCCCC(=O)N[C@H](C(=O)N[C@H](Cc1ccc(O)cc1)C(=O)N[C@@H](CCC(N)=O)C(=O)N[C@@H](CCC(=O)O)C(=O)N[C@@H](CC(C)C)C(=O)N[C@@H](CCCNC(=N)N)C(=O)N[C@@H](CCCNC(=N)N)C(=O)N[C@H](C(=O)NCC(=O)N[C@@H](CC(=O)O)C(=O)N[C@@H](CCC(=O)O)C(=O)N[C@@H](Cc1ccccc1)C(=O)O)[C@@H](C)CC)[C@@H](C)CC | 461 | 13.6 | 0.115 | 7.35 10^-5/s |  | 8.66 | 8.87 10^-3No_unit | 4.4 10^2/Ms |  |  |  | 447 |  |  |  | 98.6 | 1.78 | 
CCCCCCCCCCCCCCCC(=O)N[C@H](C(=O)N[C@H](Cc1cnc[nH]1)C(=O)N[C@@H](CCC(N)=O)C(=O)N[C@@H](CCC(=O)O)C(=O)N[C@@H](CC(C)C)C(=O)N[C@@H](CCCNC(=N)N)C(=O)N[C@@H](CCCNC(=N)N)C(=O)N[C@H](C(=O)NCC(=O)N[C@@H](CC(=O)O)C(=O)N[C@@H](CCC(=O)O)C(=O)N[C@@H](Cc1ccccc1)C(=O)O)[C@@H](C)CC)[C@@H](C)CC | 871 |  | 2.9 |  |  | 3.79 |  |  |  |  |  |  |  |  |  |  | 1.14 | 
CCCCCCCCCCCCCCCC(=O)N[C@H](C(=O)N[C@H](C)C(=O)N[C@@H](CCC(N)=O)C(=O)N[C@@H](CCC(=O)O)C(=O)N[C@@H](CC(C)C)C(=O)N[C@@H](CCCNC(=N)N)C(=O)N[C@@H](CCCNC(=N)N)C(=O)N[C@H](C(=O)NCC(=O)N[C@@H](CC(=O)O)C(=O)N[C@@H](CCC(=O)O)C(=O)N[C@@H](Cc1ccccc1)C(=O)O)[C@@H](C)CC)[C@@H](C)CC | 395 | 3.61 | 1.72 | 1.46 10^-4/s |  | 15 | 6.69 10^-3No_unit | 3.27 10^2/Ms |  |  |  | 167 |  |  |  | 102 | 2.42 | 
CCCCCCCCCCCCCCCC(=O)N[C@H](C(=O)N[C@@H](C(=O)N[C@@H](CCC(N)=O)C(=O)N[C@@H](CCC(=O)O)C(=O)N[C@@H](CC(C)C)C(=O)N[C@@H](CCCNC(=N)N)C(=O)N[C@@H](CCCNC(=N)N)C(=O)N[C@H](C(=O)NCC(=O)N[C@@H](CC(=O)O)C(=O)N[C@@H](CCC(=O)O)C(=O)N[C@@H](Cc1ccccc1)C(=O)O)[C@@H](C)CC)C(C)C)[C@@H](C)CC | 805 | 7.12 | 0.163 | 5.85 10^-3/s |  | 12.3 | 6.14 10^-3No_unit | 2.78 10^2/Ms |  |  |  | 2110 |  |  |  | 70.7 | 1.17 | 
CCCCCCCCCCCCCCCC(=O)N[C@H](C(=O)N[C@@H](C)C(=O)N[C@@H](CCC(N)=O)C(=O)N[C@@H](CCC(=O)O)C(=O)N[C@@H](CC(C)C)C(=O)N[C@@H](CCCNC(=N)N)C(=O)N[C@@H](CCCNC(=N)N)C(=O)N[C@H](C(=O)NCC(=O)N[C@@H](CC(=O)O)C(=O)N[C@@H](CCC(=O)O)C(=O)N[C@@H](Cc1ccccc1)C(=O)O)[C@@H](C)CC)[C@@H](C)CC |  | 3.68 | 0.556 | 6.65 10^-3/s |  | 2.65 | 7.3 10^-3No_unit | 2.35 10^2/Ms |  |  |  | 2820 |  |  |  | 10.6 | 2.7 | 
